Drawing on ChEMBL document CHEMBL1150761, “Additional biologically active constituents of the Chinese tallow tree (Sapium sebiferum)” (1988), this text covers EC50 for six compounds.

Structures are written as SMILES. Converted amounts (≈) assume the structure as drawn.

For the experiment, the system named is P388. As to the kind of experiment: Cytotoxicity against mouse P388 cells. The experiment is classed as functional. To be noted: read-out: ED50 (the source's name).

With `CC1(C)CC(O)C[C@@]2(C)OC(=O)C=C12` (stereo partly specified), the EC50 turned out to be 15 µg/mL (≈ 76.4 µM). The value for `O=c1c(O[C@@H]2O[C@H](CO)[C@@H](O)[C@H](O)[C@H]2O)c(-c2ccc(O)cc2)oc2cc(O)cc(O)c12` [ASTRAGALIN] was 8.2 µg/mL (≈ 18.3 µM). The value for `O=C(O)c1cc(O)c(O)c(O)c1` [GALLIC ACID] was 0.7 µg/mL (≈ 4.11 µM); that for `O=c1c(O)c(-c2ccc(O)cc2)oc2cc(O)cc(O)c12` [KAEMPFEROL] was 6.7 µg/mL (≈ 23.4 µM); that for `O=c1c(O)c(-c2ccc(O)c(O)c2)oc2cc(O)cc(O)c12` [QUERCETIN] was 40 µg/mL (≈ 132 µM). The value for `CC[C@H](CC[C@@H](C)[C@H]1CC[C@H]2[C@@H]3CC=C4C[C@@H](O[C@@H]5O[C@H](CO)[C@@H](O)[C@H](O)[C@H]5O)CC[C@]4(C)[C@H]3CC[C@]12C)C(C)C` [SITOGLUSIDE] was 53 µg/mL (≈ 91.9 µM).
